# In ChEMBL document CHEMBL1150977, “A quantitative analysis of kinase inhibitor selectivity” (Nat Biotechnol, 2008):
# Target: Cyclin-dependent kinase 11B (Homo sapiens, UniProt P21127)
# Sequence (P21127 whole entry): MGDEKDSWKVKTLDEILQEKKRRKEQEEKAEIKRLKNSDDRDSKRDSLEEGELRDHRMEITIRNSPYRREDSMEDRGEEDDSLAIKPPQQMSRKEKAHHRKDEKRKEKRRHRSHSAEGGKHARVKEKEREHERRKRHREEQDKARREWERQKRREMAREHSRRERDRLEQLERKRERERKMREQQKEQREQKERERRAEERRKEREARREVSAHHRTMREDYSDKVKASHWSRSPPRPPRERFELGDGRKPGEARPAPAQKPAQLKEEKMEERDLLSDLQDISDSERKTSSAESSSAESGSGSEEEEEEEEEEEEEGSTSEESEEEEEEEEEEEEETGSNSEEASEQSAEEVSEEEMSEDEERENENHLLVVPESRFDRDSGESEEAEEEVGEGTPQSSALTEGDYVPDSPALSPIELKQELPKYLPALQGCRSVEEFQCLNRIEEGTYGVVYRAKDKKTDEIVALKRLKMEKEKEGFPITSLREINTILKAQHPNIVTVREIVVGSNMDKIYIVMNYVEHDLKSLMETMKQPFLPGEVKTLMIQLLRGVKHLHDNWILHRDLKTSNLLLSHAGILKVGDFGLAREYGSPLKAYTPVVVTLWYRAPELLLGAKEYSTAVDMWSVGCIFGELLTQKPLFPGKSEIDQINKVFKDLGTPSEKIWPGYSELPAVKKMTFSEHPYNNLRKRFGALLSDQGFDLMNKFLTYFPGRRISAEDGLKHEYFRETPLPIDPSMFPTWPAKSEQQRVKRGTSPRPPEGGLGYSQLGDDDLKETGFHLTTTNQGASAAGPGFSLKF
row,SMILES,Kd [µM]
1,CCOc1cc2ncc(C#N)c(Nc3ccc(F)c(Cl)c3)c2cc1NC(=O)/C=C/CN(C)C [PELITINIB],> 10
2,Oc1ccc(-c2nc(-c3ccncc3)c(-c3ccc(F)cc3)[nH]2)cc1 [SB-202190],> 10
3,COCC(=O)NC/C=C/c1ccc2ncnc(Nc3ccc(Oc4ccc(C)nc4)c(C)c3)c2c1 [CP-724714],> 10
4,NC(=O)c1ccc(-c2nc(-c3ccc4c(c3)OCO4)c(-c3ccccn3)[nH]2)cc1 [SB-431542],> 10

# Target: T1, Tyrosine-protein kinase Mer (Homo sapiens, UniProt Q12866)
# T1 sequence (Q12866 whole entry): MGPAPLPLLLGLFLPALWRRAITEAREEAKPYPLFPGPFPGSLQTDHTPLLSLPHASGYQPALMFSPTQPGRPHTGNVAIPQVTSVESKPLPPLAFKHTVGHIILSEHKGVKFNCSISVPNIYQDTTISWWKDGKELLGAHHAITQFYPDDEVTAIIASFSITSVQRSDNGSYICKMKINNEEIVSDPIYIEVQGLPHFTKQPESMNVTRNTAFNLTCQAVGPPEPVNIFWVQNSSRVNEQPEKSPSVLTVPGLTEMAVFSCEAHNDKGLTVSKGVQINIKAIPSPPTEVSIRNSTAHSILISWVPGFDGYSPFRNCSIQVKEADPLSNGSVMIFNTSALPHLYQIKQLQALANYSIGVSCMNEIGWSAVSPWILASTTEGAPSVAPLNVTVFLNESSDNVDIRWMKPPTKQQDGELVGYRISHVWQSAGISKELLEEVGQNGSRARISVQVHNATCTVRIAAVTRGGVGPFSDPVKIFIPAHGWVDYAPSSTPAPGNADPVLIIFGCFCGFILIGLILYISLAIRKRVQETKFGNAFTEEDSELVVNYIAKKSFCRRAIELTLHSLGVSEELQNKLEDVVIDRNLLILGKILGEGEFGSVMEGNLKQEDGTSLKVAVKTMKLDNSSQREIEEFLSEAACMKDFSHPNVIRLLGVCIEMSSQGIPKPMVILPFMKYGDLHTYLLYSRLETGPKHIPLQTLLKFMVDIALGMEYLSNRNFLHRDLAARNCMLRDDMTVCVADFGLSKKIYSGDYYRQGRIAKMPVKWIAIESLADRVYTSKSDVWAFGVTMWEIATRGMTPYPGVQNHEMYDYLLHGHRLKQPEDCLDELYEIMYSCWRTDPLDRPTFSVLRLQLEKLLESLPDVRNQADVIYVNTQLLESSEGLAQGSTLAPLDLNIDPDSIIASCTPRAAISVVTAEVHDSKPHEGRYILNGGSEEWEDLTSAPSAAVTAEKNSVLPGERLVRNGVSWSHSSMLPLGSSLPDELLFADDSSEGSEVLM
row,SMILES,Kd [µM]
1,CCOc1cc2ncc(C#N)c(Nc3ccc(F)c(Cl)c3)c2cc1NC(=O)/C=C/CN(C)C [PELITINIB],1.3
2,Oc1ccc(-c2nc(-c3ccncc3)c(-c3ccc(F)cc3)[nH]2)cc1 [SB-202190],> 10
3,COCC(=O)NC/C=C/c1ccc2ncnc(Nc3ccc(Oc4ccc(C)nc4)c(C)c3)c2c1 [CP-724714],> 10
4,NC(=O)c1ccc(-c2nc(-c3ccc4c(c3)OCO4)c(-c3ccccn3)[nH]2)cc1 [SB-431542],> 10

# Target: Cyclin-dependent kinase 17 (Homo sapiens, UniProt Q00537)
row,SMILES,Kd [µM]
1,CCOc1cc2ncc(C#N)c(Nc3ccc(F)c(Cl)c3)c2cc1NC(=O)/C=C/CN(C)C [PELITINIB],> 10
2,Oc1ccc(-c2nc(-c3ccncc3)c(-c3ccc(F)cc3)[nH]2)cc1 [SB-202190],> 10
3,COCC(=O)NC/C=C/c1ccc2ncnc(Nc3ccc(Oc4ccc(C)nc4)c(C)c3)c2c1 [CP-724714],> 10
4,NC(=O)c1ccc(-c2nc(-c3ccc4c(c3)OCO4)c(-c3ccccn3)[nH]2)cc1 [SB-431542],> 10

# Target: Serine/threonine-protein kinase MRCK gamma (Homo sapiens, UniProt Q6DT37)
# Sequence (Q6DT37 whole entry): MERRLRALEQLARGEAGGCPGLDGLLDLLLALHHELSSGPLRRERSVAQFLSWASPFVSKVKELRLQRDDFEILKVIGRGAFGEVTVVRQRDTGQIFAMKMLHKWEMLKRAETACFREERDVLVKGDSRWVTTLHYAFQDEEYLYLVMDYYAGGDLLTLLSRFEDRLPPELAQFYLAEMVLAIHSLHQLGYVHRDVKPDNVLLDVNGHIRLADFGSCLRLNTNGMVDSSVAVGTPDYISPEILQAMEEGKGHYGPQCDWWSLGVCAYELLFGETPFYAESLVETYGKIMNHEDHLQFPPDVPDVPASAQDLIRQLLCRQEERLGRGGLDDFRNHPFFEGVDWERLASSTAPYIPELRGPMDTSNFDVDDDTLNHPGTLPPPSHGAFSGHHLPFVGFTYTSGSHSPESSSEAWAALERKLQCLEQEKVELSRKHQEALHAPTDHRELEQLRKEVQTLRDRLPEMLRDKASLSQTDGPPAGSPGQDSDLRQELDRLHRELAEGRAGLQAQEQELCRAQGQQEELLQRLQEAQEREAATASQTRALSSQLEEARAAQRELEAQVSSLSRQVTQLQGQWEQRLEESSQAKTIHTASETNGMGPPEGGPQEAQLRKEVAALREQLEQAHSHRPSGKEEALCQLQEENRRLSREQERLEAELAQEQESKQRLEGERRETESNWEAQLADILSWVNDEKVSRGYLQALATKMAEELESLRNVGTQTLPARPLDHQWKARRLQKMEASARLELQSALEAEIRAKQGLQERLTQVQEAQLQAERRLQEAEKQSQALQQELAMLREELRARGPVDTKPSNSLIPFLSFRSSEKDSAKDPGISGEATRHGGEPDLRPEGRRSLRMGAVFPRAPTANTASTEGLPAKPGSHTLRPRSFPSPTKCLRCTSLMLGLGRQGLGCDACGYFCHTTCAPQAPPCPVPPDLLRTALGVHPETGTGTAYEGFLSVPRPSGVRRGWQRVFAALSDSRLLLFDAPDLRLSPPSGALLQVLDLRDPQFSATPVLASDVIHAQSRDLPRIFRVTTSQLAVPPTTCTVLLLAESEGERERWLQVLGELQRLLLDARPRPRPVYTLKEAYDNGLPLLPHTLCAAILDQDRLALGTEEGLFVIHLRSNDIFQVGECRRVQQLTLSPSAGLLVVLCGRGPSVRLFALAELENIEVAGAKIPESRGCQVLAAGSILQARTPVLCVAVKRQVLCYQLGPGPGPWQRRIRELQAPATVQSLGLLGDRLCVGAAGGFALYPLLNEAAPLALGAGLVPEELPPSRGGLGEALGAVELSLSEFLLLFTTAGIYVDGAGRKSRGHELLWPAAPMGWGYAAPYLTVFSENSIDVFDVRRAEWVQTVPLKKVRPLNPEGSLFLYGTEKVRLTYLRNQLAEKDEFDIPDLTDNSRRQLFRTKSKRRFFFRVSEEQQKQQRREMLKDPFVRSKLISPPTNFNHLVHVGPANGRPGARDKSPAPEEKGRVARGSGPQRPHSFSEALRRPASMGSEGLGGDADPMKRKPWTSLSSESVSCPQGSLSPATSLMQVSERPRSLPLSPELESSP
row,SMILES,Kd [µM]
1,CCOc1cc2ncc(C#N)c(Nc3ccc(F)c(Cl)c3)c2cc1NC(=O)/C=C/CN(C)C [PELITINIB],> 10
2,Nc1nc(Nc2ccc(S(N)(=O)=O)cc2)nn1C(=O)c1c(F)cccc1F [JNJ-7706621],> 10
3,Oc1ccc(-c2nc(-c3ccncc3)c(-c3ccc(F)cc3)[nH]2)cc1 [SB-202190],0.64
4,COCC(=O)NC/C=C/c1ccc2ncnc(Nc3ccc(Oc4ccc(C)nc4)c(C)c3)c2c1 [CP-724714],> 10
5,NC(=O)c1ccc(-c2nc(-c3ccc4c(c3)OCO4)c(-c3ccccn3)[nH]2)cc1 [SB-431542],> 10

# Target: Calcium/calmodulin-dependent protein kinase type II subunit gamma (Homo sapiens, UniProt Q13555)
# Sequence (Q13555 whole entry): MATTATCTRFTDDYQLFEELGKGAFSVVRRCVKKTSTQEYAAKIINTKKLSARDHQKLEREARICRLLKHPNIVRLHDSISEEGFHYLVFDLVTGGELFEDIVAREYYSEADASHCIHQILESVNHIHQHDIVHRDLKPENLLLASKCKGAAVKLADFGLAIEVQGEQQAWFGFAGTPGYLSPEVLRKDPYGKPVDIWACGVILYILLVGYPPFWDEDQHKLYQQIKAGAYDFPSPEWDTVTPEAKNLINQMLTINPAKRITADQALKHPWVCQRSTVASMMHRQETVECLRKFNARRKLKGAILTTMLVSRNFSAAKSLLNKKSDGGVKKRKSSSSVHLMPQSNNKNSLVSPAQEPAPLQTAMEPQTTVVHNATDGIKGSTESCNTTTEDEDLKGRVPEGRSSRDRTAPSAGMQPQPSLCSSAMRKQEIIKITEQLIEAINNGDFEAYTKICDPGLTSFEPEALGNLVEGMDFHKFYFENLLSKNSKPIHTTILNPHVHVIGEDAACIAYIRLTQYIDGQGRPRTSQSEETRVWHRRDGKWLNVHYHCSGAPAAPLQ
row,SMILES,Kd [µM]
1,CCOc1cc2ncc(C#N)c(Nc3ccc(F)c(Cl)c3)c2cc1NC(=O)/C=C/CN(C)C [PELITINIB],> 10
2,Nc1nc(Nc2ccc(S(N)(=O)=O)cc2)nn1C(=O)c1c(F)cccc1F [JNJ-7706621],> 10
3,Oc1ccc(-c2nc(-c3ccncc3)c(-c3ccc(F)cc3)[nH]2)cc1 [SB-202190],> 10
4,COCC(=O)NC/C=C/c1ccc2ncnc(Nc3ccc(Oc4ccc(C)nc4)c(C)c3)c2c1 [CP-724714],> 10
5,NC(=O)c1ccc(-c2nc(-c3ccc4c(c3)OCO4)c(-c3ccccn3)[nH]2)cc1 [SB-431542],> 10

# Target: LIM domain kinase 1 (Homo sapiens, UniProt P53667)
# Sequence (P53667 whole entry, the tested form may be a part): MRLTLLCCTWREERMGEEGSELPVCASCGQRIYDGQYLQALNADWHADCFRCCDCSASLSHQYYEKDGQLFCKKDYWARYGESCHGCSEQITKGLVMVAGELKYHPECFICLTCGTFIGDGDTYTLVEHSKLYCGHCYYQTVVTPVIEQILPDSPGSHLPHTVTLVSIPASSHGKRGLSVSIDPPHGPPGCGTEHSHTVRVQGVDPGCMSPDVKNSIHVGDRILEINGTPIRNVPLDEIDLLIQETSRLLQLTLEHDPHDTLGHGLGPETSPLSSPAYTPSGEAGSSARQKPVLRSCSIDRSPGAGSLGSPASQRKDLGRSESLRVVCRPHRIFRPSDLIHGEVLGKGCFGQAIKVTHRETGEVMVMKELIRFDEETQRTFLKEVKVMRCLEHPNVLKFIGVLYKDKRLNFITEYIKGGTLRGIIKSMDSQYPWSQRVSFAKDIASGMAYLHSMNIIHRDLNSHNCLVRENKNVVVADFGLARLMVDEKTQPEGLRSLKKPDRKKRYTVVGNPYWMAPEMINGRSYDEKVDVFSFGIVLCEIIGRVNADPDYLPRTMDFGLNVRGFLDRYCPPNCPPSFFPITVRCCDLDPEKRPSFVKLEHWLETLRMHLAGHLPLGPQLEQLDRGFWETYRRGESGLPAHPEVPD
row,SMILES,Kd [µM]
1,CCOc1cc2ncc(C#N)c(Nc3ccc(F)c(Cl)c3)c2cc1NC(=O)/C=C/CN(C)C [PELITINIB],> 10
2,Oc1ccc(-c2nc(-c3ccncc3)c(-c3ccc(F)cc3)[nH]2)cc1 [SB-202190],> 10
3,COCC(=O)NC/C=C/c1ccc2ncnc(Nc3ccc(Oc4ccc(C)nc4)c(C)c3)c2c1 [CP-724714],> 10
4,NC(=O)c1ccc(-c2nc(-c3ccc4c(c3)OCO4)c(-c3ccccn3)[nH]2)cc1 [SB-431542],> 10
5,CCN1CCN(Cc2ccc(NC(=O)Nc3ccc(Oc4cc(NC)ncn4)cc3)cc2C(F)(F)F)CC1 [AST-487],> 10

# Target: T2, Dual specificity protein kinase TTK (Homo sapiens, UniProt P33981)
# T2 sequence (P33981 whole entry): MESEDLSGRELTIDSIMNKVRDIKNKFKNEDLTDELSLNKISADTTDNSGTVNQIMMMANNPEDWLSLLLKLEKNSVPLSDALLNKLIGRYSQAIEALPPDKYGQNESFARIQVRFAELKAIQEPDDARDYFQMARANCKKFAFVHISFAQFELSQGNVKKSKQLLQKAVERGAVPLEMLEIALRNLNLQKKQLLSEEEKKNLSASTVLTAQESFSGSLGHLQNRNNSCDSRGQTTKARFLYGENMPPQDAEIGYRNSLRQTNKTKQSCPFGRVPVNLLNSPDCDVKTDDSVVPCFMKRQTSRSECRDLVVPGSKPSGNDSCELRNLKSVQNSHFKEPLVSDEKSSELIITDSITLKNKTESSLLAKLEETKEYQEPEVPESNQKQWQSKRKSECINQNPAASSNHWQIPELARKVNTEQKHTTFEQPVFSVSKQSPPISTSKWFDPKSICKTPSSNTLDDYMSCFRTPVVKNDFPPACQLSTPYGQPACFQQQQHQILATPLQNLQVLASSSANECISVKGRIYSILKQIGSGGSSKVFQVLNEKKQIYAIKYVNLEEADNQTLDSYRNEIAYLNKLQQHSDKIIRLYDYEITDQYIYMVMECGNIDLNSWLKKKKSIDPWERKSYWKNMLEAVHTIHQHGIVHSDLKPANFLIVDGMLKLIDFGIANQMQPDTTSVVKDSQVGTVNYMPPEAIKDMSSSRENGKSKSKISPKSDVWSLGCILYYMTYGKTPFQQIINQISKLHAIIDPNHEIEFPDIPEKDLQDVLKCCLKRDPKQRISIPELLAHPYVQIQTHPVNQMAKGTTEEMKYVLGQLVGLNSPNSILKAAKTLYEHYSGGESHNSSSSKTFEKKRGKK
row,SMILES,Kd [µM]
1,CCOc1cc2ncc(C#N)c(Nc3ccc(F)c(Cl)c3)c2cc1NC(=O)/C=C/CN(C)C [PELITINIB],> 10
2,Oc1ccc(-c2nc(-c3ccncc3)c(-c3ccc(F)cc3)[nH]2)cc1 [SB-202190],4.5
3,COCC(=O)NC/C=C/c1ccc2ncnc(Nc3ccc(Oc4ccc(C)nc4)c(C)c3)c2c1 [CP-724714],> 10
4,NC(=O)c1ccc(-c2nc(-c3ccc4c(c3)OCO4)c(-c3ccccn3)[nH]2)cc1 [SB-431542],> 10

# Target: Cyclin-dependent kinase 18 (Homo sapiens, UniProt Q07002)
# Sequence (Q07002 whole entry): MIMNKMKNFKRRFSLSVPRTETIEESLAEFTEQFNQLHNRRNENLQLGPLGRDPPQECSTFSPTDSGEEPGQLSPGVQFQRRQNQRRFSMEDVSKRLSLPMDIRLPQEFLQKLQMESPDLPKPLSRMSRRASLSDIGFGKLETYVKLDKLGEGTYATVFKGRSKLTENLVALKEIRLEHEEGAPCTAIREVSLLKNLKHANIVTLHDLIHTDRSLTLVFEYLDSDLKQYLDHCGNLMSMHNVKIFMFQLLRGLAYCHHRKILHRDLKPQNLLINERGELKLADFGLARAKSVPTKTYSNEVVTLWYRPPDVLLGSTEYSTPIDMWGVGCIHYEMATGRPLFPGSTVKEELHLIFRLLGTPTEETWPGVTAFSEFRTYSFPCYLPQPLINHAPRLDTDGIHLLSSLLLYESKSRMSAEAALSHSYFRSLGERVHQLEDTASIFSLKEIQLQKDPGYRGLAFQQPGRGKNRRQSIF
row,SMILES,Kd [µM]
1,CCOc1cc2ncc(C#N)c(Nc3ccc(F)c(Cl)c3)c2cc1NC(=O)/C=C/CN(C)C [PELITINIB],> 10
2,Oc1ccc(-c2nc(-c3ccncc3)c(-c3ccc(F)cc3)[nH]2)cc1 [SB-202190],> 10
3,COCC(=O)NC/C=C/c1ccc2ncnc(Nc3ccc(Oc4ccc(C)nc4)c(C)c3)c2c1 [CP-724714],> 10
4,NC(=O)c1ccc(-c2nc(-c3ccc4c(c3)OCO4)c(-c3ccccn3)[nH]2)cc1 [SB-431542],> 10

# Target: Ephrin type-A receptor 7 (Homo sapiens, UniProt Q15375)
# Sequence (Q15375 whole entry): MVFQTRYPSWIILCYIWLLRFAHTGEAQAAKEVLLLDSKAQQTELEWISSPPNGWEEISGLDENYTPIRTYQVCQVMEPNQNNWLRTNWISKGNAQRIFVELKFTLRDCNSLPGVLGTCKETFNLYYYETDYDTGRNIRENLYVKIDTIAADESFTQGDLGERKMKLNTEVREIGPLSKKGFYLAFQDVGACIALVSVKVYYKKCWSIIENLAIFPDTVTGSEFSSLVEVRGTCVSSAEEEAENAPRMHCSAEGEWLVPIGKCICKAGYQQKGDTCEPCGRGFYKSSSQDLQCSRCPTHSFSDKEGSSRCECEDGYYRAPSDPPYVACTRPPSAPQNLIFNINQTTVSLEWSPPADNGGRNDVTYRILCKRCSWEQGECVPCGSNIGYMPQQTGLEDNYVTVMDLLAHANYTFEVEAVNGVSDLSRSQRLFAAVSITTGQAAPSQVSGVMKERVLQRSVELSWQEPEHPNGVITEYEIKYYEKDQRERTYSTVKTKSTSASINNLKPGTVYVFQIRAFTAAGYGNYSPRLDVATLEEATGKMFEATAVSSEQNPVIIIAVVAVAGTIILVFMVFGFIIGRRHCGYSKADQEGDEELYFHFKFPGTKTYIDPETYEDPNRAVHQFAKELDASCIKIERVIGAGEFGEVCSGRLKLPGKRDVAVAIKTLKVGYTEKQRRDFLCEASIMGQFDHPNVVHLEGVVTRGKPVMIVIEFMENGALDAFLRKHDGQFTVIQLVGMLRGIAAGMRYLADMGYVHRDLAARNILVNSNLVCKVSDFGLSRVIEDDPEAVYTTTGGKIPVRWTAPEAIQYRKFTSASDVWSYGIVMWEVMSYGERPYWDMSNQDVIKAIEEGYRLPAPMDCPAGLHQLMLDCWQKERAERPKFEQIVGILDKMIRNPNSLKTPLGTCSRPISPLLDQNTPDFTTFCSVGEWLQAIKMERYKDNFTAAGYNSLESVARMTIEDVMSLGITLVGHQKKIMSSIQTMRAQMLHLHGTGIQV
row,SMILES,Kd [µM]
1,CCOc1cc2ncc(C#N)c(Nc3ccc(F)c(Cl)c3)c2cc1NC(=O)/C=C/CN(C)C [PELITINIB],> 10
2,Nc1nc(Nc2ccc(S(N)(=O)=O)cc2)nn1C(=O)c1c(F)cccc1F [JNJ-7706621],3.1
3,Oc1ccc(-c2nc(-c3ccncc3)c(-c3ccc(F)cc3)[nH]2)cc1 [SB-202190],> 10
4,COCC(=O)NC/C=C/c1ccc2ncnc(Nc3ccc(Oc4ccc(C)nc4)c(C)c3)c2c1 [CP-724714],> 10
5,NC(=O)c1ccc(-c2nc(-c3ccc4c(c3)OCO4)c(-c3ccccn3)[nH]2)cc1 [SB-431542],> 10

# Target: T3, Serine/threonine-protein kinase DCLK2 (Homo sapiens, UniProt Q8N568)
# T3 sequence (Q8N568 whole entry): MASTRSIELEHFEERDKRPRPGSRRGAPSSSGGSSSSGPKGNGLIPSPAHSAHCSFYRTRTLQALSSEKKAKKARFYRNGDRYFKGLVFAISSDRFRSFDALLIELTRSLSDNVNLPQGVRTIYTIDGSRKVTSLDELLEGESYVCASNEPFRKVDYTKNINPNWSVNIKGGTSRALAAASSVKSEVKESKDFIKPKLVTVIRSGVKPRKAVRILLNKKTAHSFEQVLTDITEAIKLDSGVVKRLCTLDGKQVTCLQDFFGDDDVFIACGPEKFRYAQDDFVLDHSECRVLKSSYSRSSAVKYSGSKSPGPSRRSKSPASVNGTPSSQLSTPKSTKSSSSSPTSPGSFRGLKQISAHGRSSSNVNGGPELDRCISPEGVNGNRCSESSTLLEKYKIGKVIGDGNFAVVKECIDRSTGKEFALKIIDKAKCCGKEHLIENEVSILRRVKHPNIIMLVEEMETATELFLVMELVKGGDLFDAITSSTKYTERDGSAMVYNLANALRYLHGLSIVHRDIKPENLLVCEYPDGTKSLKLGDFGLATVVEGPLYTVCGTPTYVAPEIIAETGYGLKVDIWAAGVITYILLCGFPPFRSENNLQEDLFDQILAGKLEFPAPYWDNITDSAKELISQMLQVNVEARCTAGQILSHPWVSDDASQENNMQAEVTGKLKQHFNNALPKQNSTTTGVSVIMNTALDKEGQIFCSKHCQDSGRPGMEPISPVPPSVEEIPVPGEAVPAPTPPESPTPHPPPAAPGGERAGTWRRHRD
row,SMILES,Kd [µM]
1,CCOc1cc2ncc(C#N)c(Nc3ccc(F)c(Cl)c3)c2cc1NC(=O)/C=C/CN(C)C [PELITINIB],> 10
2,Nc1nc(Nc2ccc(S(N)(=O)=O)cc2)nn1C(=O)c1c(F)cccc1F [JNJ-7706621],4.5
3,Oc1ccc(-c2nc(-c3ccncc3)c(-c3ccc(F)cc3)[nH]2)cc1 [SB-202190],> 10
4,COCC(=O)NC/C=C/c1ccc2ncnc(Nc3ccc(Oc4ccc(C)nc4)c(C)c3)c2c1 [CP-724714],> 10
5,NC(=O)c1ccc(-c2nc(-c3ccc4c(c3)OCO4)c(-c3ccccn3)[nH]2)cc1 [SB-431542],> 10
